This is an account of results in patent US4062950A, “Amino sugar derivatives” (priority 1973, dated 1977).

One series can be described thus: Solubility. In kind it is physicochemical.
Another series deals with glucose absorption. The series is described as follows: Effect on glucose absorption in fasting rats. In kind it is in vivo, rat. Here is the method: The produce an alimentary hyperglycemia and hyperinsulinaemia, groups of 6 fasting rats are given (a) 2.5 g of sucrose, (b) 2.5 g of maltose or (c) 1 g of boiled starch orally, in aqueous solution or suspension. Six other rats are given the same carbohydrates in the same amount and a glycoside hydrolase inhibitor in the amount indicated. In addition, six other rats are given an appropriate volume of saline. The blood glucose and the serum insulin are then measured at short intervals of time, in the blood from the retro-orbital venous plexus. Blood glucose determinations are carried out in the Auto-Analyser device (Technicon), according to Hoffmann: J. biol. Chem. 120, 51 (1937), or enzymatically by means of glucose oxidase and o-dianisidine hydrochloride and the serum insulin determinations are carried out according to the method of Hales and Randle: Biochem. J. 88, 137 (1963).

The next series deals with maltase. Nature of the series: In vitro maltase test. Type of series: biochemical, pig. The settings on record: Table II. The procedure: One maltase inhibitor unit (MIU) is defined as the amount of inhibitor which inhibits two maltase units to the extent of 50%. One maltase unit (MU) is the amount of enzyme which in one minute, under the test conditions specified below, splits 1 μmol of maltose into 2 μmol of glucose. The μmol of glucose formed are determined quantitatively by means of the glucose oxidase reaction under conditions such that further splitting of maltose by the maltase no longer takes place. To carry out the test, 0.05 ml of solubilized maltase [from the mucous membrane of the small intestine of the pig, according to B. Borgstrom, A, Dahlquist, Acta Chem, Scan. […] The mixture is equilibrated for 10 minutes at 35° C and 0.1 ml of an 0.05 M maltose solution in 0.1 M sodium maleate buffer of pH 6.0, pre-warmed to 35° C, is then added. The mixture is incubated for 20 minutes at 35° C and the maltase reaction is stopped by addition of 1 ml of the glucose oxidase reagent described above, and the incubation is continued for a further 30 minutes at 35° C. Thereafter, 1 ml of 50% strength sulfuric acid is added and a measurement carried out at 545 nm against a corresponding blank.

In the case of `C[C@H]1O[C@H](O[C@H]2[C@H](O)[C@@H](O)[C@@H](O[C@H]3[C@H](O)[C@@H](O)C(O)O[C@@H]3CO)O[C@@H]2CO)[C@H](O)[C@@H](O)[C@@H]1N[C@H]1C=C(CO)[C@@H](O)[C@H](O)[C@H]1O` (stereo partly drawn) [Formula IIIB, O-{4,6-bisdesoxy-4-[1 S-(1,4,6/5)-4,5,6-trihydroxy-3-hydroxymethylcyclohex-2-en-1-ylamino]-α-D-glucopyranosyl}-(1→4)-O-α-D-glucopyranosyl-(1→4)-D-glucopyranose], the water solubility result in the series “Solubility” is “readily water-soluble”. Besides, the “Blood Glucose (Mean ± SD)” value in the series with glucose absorption (glucose + 30 mg, 15 Min.) came out at 135 ± 13 mg%; in the series with glucose absorption (glucose + 30 mg, 30 Min.), 128 ± 5.5 mg%; in the series with glucose absorption (glucose + 30 mg, 45 Min.) it was 132 ± 7.3 mg%; in the series with glucose absorption (glucose + 60 mg, 15 Min.), 125 ± 13 mg%; with glucose absorption (glucose + 60 mg, 30 Min.) it was 118 ± 2.9 mg%; with glucose absorption (glucose + 60 mg, 45 Min.), 130 ± 9.0 mg%. For the same compound, the “Maltase Inhibition” value with maltase was 15,000 MIU/g.

Regarding `C[C@H]1O[C@H](O[C@H]2[C@H](O)[C@@H](O)C(O)O[C@@H]2CO)[C@H](O)[C@@H](O)[C@@H]1N[C@H]1C=C(CO)[C@@H](O)[C@H](O)[C@H]1O` (stereo partly drawn) [Formula IIB, O-{4,6-bisdesoxy-4-[1 S-(1,4,6/5)-4,5,6-trihydroxy-3-hydroxymethylcyclohex-2-en-1-ylamino]-α-D-glucopyranosyl}-(1→4)-D-glucopyranose], the solubility entry in the series “Solubility” (water, dimethylformamide, dimethylsulfoxide, methanol and hot ethanol) was “good solubility”. Moreover, the “Maltase Inhibition” value with maltase was 5,000 MIU/g.

As to `C[C@H]1O[C@H](O[C@H]2[C@H](O)[C@@H](O)[C@@H](O[C@H]3[C@H](O)[C@@H](O)C(O)O[C@@H]3CO)O[C@@H]2CO)[C@H](O)[C@@H](O)[C@@H]1N[C@H]1C=C(CO)[C@@H](O[C@H]2O[C@H](CO)[C@@H](O)[C@H](O)[C@H]2O)[C@H](O)[C@H]1O` (stereo partly drawn) [Formula V, O-{4,6-bisdesoxy-4-[1 S-(1,4,6/5)-4,5,6-trihydroxy-3-hydroxymethyl-4-O-α-D-glucopyranosyl-(1→4)-cyclohex-2-en-1-ylamino]-α-D-glycopyranosyl}-(1→4)-O-α-D-glucopyranosyl-(1→4)-D-glucopyranose], the “Maltase Inhibition” value in the series with maltase is 5,000 MIU/g.
